The values that follow come from patent publication US12150995B2, “IRAK degraders and uses thereof” (Kymera Therapeutics, Inc., priority 2020, dated 2024).

Each structure is given as a SMILES string.

The experiment addresses T1, IRAK4 (Homo sapiens, UniProt Q9NWZ3).
T1 construct: endogenous in cells; host or cells: OCI-LY10
T1 sequence (Q9NWZ3 1-460): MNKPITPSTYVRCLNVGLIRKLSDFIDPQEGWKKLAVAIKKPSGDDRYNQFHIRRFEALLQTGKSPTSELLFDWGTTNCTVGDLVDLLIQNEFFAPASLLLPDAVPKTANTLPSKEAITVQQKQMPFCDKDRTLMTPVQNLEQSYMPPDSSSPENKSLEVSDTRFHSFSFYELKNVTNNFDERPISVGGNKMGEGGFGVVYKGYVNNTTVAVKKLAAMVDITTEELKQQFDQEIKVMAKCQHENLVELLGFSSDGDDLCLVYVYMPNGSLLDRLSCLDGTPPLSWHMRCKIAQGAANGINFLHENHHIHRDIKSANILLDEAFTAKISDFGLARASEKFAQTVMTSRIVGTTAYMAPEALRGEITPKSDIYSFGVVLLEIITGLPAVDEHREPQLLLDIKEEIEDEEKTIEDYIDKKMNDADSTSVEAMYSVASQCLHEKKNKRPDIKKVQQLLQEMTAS
Description: IRAK4 MSD Degradation in OCI-LY10. The experiment is classed as cell-based. The settings on record: OCI-LY10 cells, Meso Scale Discovery, incubated 4 to 24 hours. Summed up: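 OCI-LY10 cells (300,000/well) exposed to an 8-point 1:3 series from a top concentration of 1 to 10 μM for 4 to 24 h at 37 °C. IRAK4 remaining in RIPA lysates quantified by MSD sandwich immunoassay; DC50 from a three-parameter logistic fit.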

Take `COc1cc2nn([C@H]3CC[C@H](CN4CC5(CN(Cc6cccc7c6n(C)c(=O)n7C6CCC(=O)NC6=O)C5)C4)CC3)cc2cc1NC(=O)c1cncc(C#N)c1` (some centres unmarked) [I-244]: the DC50 lay in the range of 100 to 200 nM.

`CN(CCCCNc1cccc2c1C(=O)N(C1CCC(=O)NC1=O)C2=O)C[C@H]1CC[C@H](c2nc3cc(C(C)(C)O)c(NC(=O)c4cccc(C(F)(F)F)n4)cc3s2)CC1` (some centres unmarked) [I-447] displayed a DC50 of less than 10 nM.

With `COc1cc2nn([C@H]3CC[C@H](CN4CCC(CCNc5cccc6c5C(=O)N(C5CCC(=O)NC5=O)C6=O)CC4)CC3)cc2cc1NC(=O)c1cccc(C(C)(F)F)n1` (some centres unmarked) [I-8], the DC50 lay within 10 to 50 nM.

For the compound `Cc1cccc(C(=O)Nc2cc3sc([C@H]4CC[C@H](C(=O)N5CCN(CCCNc6cccc7c6C(=O)N(C6CCC(=O)NC6=O)C7=O)CC5)CC4)nc3cc2C(C)(C)O)n1` (some centres unmarked) [I-465], the 50% degradation concentration (DC50) is less than 10 nM.

With `N#Cc1cnc2c(C(=O)Nc3ccc4nn([C@H]5CC[C@H](CN6CCC(c7cccc8c(N9CCC(=O)NC9=O)cncc78)CC6)CC5)cc4c3)cnn2c1` [I-204, 6-Cyano-N-[2-[4-[[4-[4-(2,4-dioxohexahydropyrimidin-1-yl)-8-isoquinolyl]-1-piperidyl]methyl]cyclohexyl]indazol-5-yl]pyrazolo[1,5-a]pyrimidine-3-carboxamide], the DC50 is 10 to 50 nM.

For the compound `COc1cc2nn([C@H]3CC[C@H](CN4CCC(c5c(C)ccc6c5n(C)c(=O)n6C5CCC(=O)NC5=O)CC4)CC3)cc2cc1NC(=O)c1cccc(C(F)(F)F)n1` (some centres unmarked) [I-39], the DC50 is less than 10 nM.

In turn, `COc1cc2nn([C@H]3CC[C@H](CN4CCCN(c5cccc6c(N7CCC(=O)NC7=O)cncc56)CC4)CC3)cc2cc1NC(=O)c1cncc(C#N)c1` [I-289] had a DC50 greater than 200 nM.

`Cc1nc(C(=O)Nc2cc3cn([C@H]4CC[C@H](CN(C)C5CCN(c6cccc7c6n(C)c(=O)n7C6CCC(=O)N(C)C6=O)CC5)CC4)nc3cc2C(C)(C)O)co1` (some centres unmarked) [I-61] had a DC50 greater than 200 nM.

`Cn1c(=O)n(C2CCC(=O)NC2=O)c2cccc(C3CCN(C[C@H]4CC[C@H](n5cc6cc(NC(=O)c7cccc(C(F)(F)F)n7)ncc6n5)CC4)CC3)c21` (some centres unmarked) [I-62]: the DC50 is less than 10 nM.

In turn, `COc1cc2nn([C@H]3CC[C@H](CN(C)C4CCN(c5cccc6c5n(C)c(=O)n6C5CCC(=O)NC5=O)CC4)CC3)cc2cc1NC(=O)c1cc(F)cc(C(F)(F)F)c1` (some centres unmarked) [I-131] yielded a DC50 of 10 to 50 nM.

`CN(C[C@H]1CC[C@H](n2cc3cc(NC(=O)c4cccc(C(F)(F)F)n4)c(C#N)cc3n2)CC1)C1CCN(c2cccc3c2n(C)c(=O)n3C2CCC(=O)NC2=O)CC1` (some centres unmarked) [I-239] had a DC50 of less than 10 nM.

Regarding `COc1cncc(C(=O)Nc2cc3cn([C@H]4CC[C@H](CN5CCN(c6cccc7c6n(C)c(=O)n7C6CCC(=O)NC6=O)CC5)CC4)nc3cc2OC)c1` (some centres unmarked) [I-287], the DC50 is less than 10 nM.

On to `Cn1c(=O)n(C2CCC(=O)NC2=O)c2cccc(N3CC4CC(C3)N4C[C@H]3CC[C@H](n4cc5cc(NC(=O)c6cccc(C(F)(F)F)n6)ccc5n4)CC3)c21` (single isomer, unassigned) [I-157, N-[2-[4-[[3-[1-(2,6-dioxo-3-piperidyl)-3-methyl-2-oxo-benzimidazol-4-yl]-3,6-diazabicyclo[3.1.1]heptan-6-yl]methyl]cyclohexyl]indazol-5-yl]-6-(trifluoromethyl)pyridine-2-carboxamide], for which the DC50 lay in the range of 50 to 100 nM.

For `Cc1cc2nn([C@H]3CC[C@H](CN4CCC(c5cccc6c5n(C)c(=O)n6C5CCC(=O)N(C)C5=O)CC4)CC3)cc2cc1NC(=O)c1cccc(C(F)(F)F)n1` (some centres unmarked) [I-403], the DC50 was greater than 200 nM.

With `COc1cc2nc([C@H]3C[C@H](CN4CCC(c5cccc6c5n(C)c(=O)n6C5CCC(=O)NC5=O)CC4)C3)sc2cc1NC(=O)c1cccc(C(F)(F)F)n1` (some centres unmarked) [I-235], the DC50 lay within 50 to 100 nM.

For `COc1cc2nn([C@H]3CC[C@H](CN4CCN(c5cccc6c5n(C)c(=O)n6C5CCC(=O)NC5=O)CC4)CC3)cc2cc1NC(=O)c1cccc(C(F)(F)F)c1F` (some centres unmarked) [I-216], the DC50 is less than 10 nM.

Compound `COc1cc2nc([C@H]3CC[C@H](CN(C)CCNc4cccc5c4C(=O)N(C4CCC(=O)NC4=O)C5=O)CC3)sc2cc1NC(=O)c1cncc(F)c1` (some centres unmarked) [I-481] registered a DC50 greater than 200 nM.

`COc1cc2nc([C@H]3CC[C@H](CN(C)CCCCNc4cccc5c4C(=O)N(C4CCC(=O)NC4=O)C5=O)CC3)sc2cc1NC(=O)c1cccc(C(F)(F)F)n1` (some centres unmarked) [I-446] had a DC50 of 10 to 50 nM.

Take `Cc1cc(C2CCN(C[C@H]3CC[C@H](n4cc5cc(NC(=O)c6cccc(C(F)(F)F)n6)c(F)cc5n4)CC3)CC2)c2c(c1)n(C1CCC(=O)NC1=O)c(=O)n2C` (some centres unmarked) [I-23]: the DC50 was in the range of 100 to 200 nM.

Regarding `COc1cc2nn([C@H]3CC[C@H](CN(C)C4CCN(c5c(C)ccc6c5n(C)c(=O)n6C5CCC(=O)NC5=O)CC4)CC3)cc2cc1NC(=O)c1cccc(C(F)(F)F)n1` (some centres unmarked) [I-40], the DC50 fell in the range of 10 to 50 nM.

With `CC(C)Nc1cc(-c2ccc3cc(C#N)cnn23)ncc1C(=O)N[C@H]1CC[C@H](CN2CCC(c3cccc4c(N5CCC(=O)NC5=O)cncc34)CC2)CC1` [I-184], the 50% degradation concentration (DC50) was less than 10 nM.

The compound `COc1cc2nc([C@H]3CC[C@H](CN4CCC(c5cccc6c5n(C)c(=O)n6C5CCC(=O)NC5=O)CC4)CC3)sc2cc1NC(=O)c1cncc(C#N)c1` (some centres unmarked) [I-185] came in with a DC50 of less than 10 nM.

For `CCc1cc2nn([C@H]3CC[C@H](CN4CCN(c5cccc6c5n(C)c(=O)n6C5CCC(=O)NC5=O)CC4)CC3)cc2cc1NC(=O)c1cccc(C(F)(F)F)n1` (some centres unmarked) [I-378], the DC50 is less than 10 nM.

With `COc1cc2nn([C@H]3CC[C@H](CN4CCN(c5c(OC)ccc6c5n(C)c(=O)n6C5CCC(=O)NC5=O)CC4)CC3)cc2cc1NC(=O)c1cccc(C(F)(F)F)n1` (some centres unmarked) [I-364], the DC50 is less than 10 nM.

On to `CCOc1cc2nn([C@H]3CC[C@H](CN4CCN(c5cccc6c5n(C)c(=O)n6C5CCC(=O)NC5=O)CC4)CC3)cc2cc1NC(=O)c1cccc(C(F)(F)F)n1` (some centres unmarked) [I-294], for which the DC50 lay within 10 to 50 nM.

In the case of `C[C@H]1CN(c2cccc3c2n(C)c(=O)n3C2CCC(=O)NC2=O)CCN1C[C@H]1CC[C@H](n2cc3cc(NC(=O)c4cccc(C(F)(F)F)n4)ccc3n2)CC1` (some centres unmarked) [I-248], the DC50 was less than 10 nM.

As to `COc1cc2nn([C@H]3CC[C@H](CN4CCN(c5cccc6c(N7CCC(=O)NC7=O)cncc56)CC4)CC3)cc2cc1NC(=O)c1cncc(C#N)c1` [I-259], the DC50 was 10 to 50 nM.

`COc1cc2nn([C@H]3CC[C@H](CN4CCN(c5cccc6c(N7CCC(=O)NC7=O)cncc56)CC4)CC3)cc2cc1NC(=O)c1ccnc(C(F)(F)F)n1` [I-300] displayed a DC50 of 10 to 50 nM.

Compound `COc1cc2nn([C@H]3CC[C@H](CN4CC[C@H](c5cccc6c5n(C)c(=O)n6C5CCC(=O)NC5=O)CC4(C)C)CC3)cc2cc1NC(=O)c1cccc(C(F)(F)F)n1` (single isomer, unassigned) [I-292] displayed a DC50 of less than 10 nM.

Regarding `CC(C)Nc1cc(-c2ccc3cc(C#N)cnn23)ncc1C(=O)N[C@H]1CC[C@H](CN2CCC(c3ccc4c(N5CCC(=O)NC5=O)cncc4c3)CC2)CC1` [I-198], the DC50 was less than 10 nM.

On to `COc1cc2nn([C@H]3CC[C@H](CN4CCC(c5cccc6c5n(C)c(=O)n6C5CCC(=O)NC5=O)CC4)CC3)cc2cc1NC(=O)c1cnc(OC)c(Cl)c1` (some centres unmarked) [I-193], for which the DC50 is greater than 200 nM.

As for `N#Cc1cc2nn([C@H]3CC[C@H](CN4CCN(c5cccc6c(N7CCC(=O)NC7=O)cncc56)CC4)CC3)cc2cc1NC(=O)c1cccc(C(F)(F)F)n1` [I-288], the DC50 was in the range of 10 to 50 nM.

As for `COc1cc2nn([C@H]3CC[C@H](CN4CCC(O[C@H]5C[C@@H](c6cccc7c6n(C)c(=O)n7C6CCC(=O)NC6=O)C5)CC4)CC3)cc2cc1NC(=O)c1cccc(C(F)(F)F)n1` (some centres unmarked) [I-385], the DC50 lay in the range of 10 to 50 nM.

Turning to `CN(C(=O)[C@H]1CC[C@H](n2cc3cc(NC(=O)c4cccc(C(F)(F)F)n4)ncc3n2)CC1)C1CCN(c2cccc3c2n(C)c(=O)n3C2CCC(=O)NC2=O)CC1` (some centres unmarked) [I-187], the DC50 was less than 10 nM.

On to `COc1cc2nn([C@H]3CC[C@H](CN4CCC(c5c(C)ccc6c5n(C)c(=O)n6C5CCC(=O)NC5=O)CC4)CC3)cc2cc1NC(=O)c1cncc(C#N)c1` (some centres unmarked) [I-109], for which the DC50 was less than 10 nM.

In the case of `CN(C[C@H]1CC[C@H](n2cc3cc(NC(=O)c4cncc(C#N)c4)c(N4C[C@H]5C[C@@H]4CO5)cc3n2)CC1)C1CCN(c2cccc3c2n(C)c(=O)n3C2CCC(=O)NC2=O)CC1` (some centres unmarked) [I-217], the DC50 was greater than 200 nM.

For `COc1cc2nc([C@H]3CC[C@H](CN(C)CCCNc4cccc5c4C(=O)N(C4CCC(=O)NC4=O)C5=O)CC3)sc2cc1NC(=O)c1cncc(Cl)c1` (some centres unmarked) [I-483], the DC50 was greater than 200 nM.

`Cn1c(=O)n(C2CCC(=O)NC2=O)c2ccc(Cl)c(C3CCN(C[C@H]4C[C@H](n5cc6cc(NC(=O)c7cccc(C(F)(F)F)n7)ccc6n5)C4)CC3)c21` (some centres unmarked) [I-150] displayed a DC50 of 100 to 200 nM.

For the compound `COc1cc2nn([C@H]3CC[C@H](CN4CCN(c5cccc6c(N7CCC(=O)NC7=O)ccnc56)CC4)CC3)cc2cc1NC(=O)c1cccc(C(F)(F)F)n1` [I-382], the 50% degradation concentration (DC50) is less than 10 nM.

The compound `Cc1cc2nn([C@H]3CC[C@H](CN4CCN(c5cccc6c5n(C)c(=O)n6C5CCC(=O)N(C)C5=O)CC4)CC3)cc2cc1NC(=O)c1cccc(C(F)(F)F)n1` (some centres unmarked) [I-404] showed a DC50 greater than 200 nM.

Take `COc1cc2nn([C@H]3CC[C@H](CN4CCC(c5cccc6c5n(C)c(=O)n6C5CCC(=O)NC5=O)CC4)CC3)cc2cc1NC(=O)c1cc(F)cc(C(F)(F)F)c1` (some centres unmarked) [I-132]: the DC50 is less than 10 nM.

Broadly, the DC50 is the concentration at which degradation of the target reaches its halfway point. A low value points to degradation at low concentration.
